# Assay: Gastrointestinal Symptom Rating Scale (GSRS)
# Assay type: in vivo, human
# Settings: for Abdom Pain (combined score of GSRS 1, GSRS4, and GSRS5) / Diarrhea (combined score of GSRS11 and GSRS14) / GSRS1 Pain and discomfort in upper abdomen or stomach / GSRS2 Heartburn / GSRS3 Acid reflux / GSRS4 Hunger pangs / GSRS5 Nausea / GSRS6 Stomach rumbling / GSRS7 Stomach bloating / GSRS8 Burping / GSRS9 Passing gas or flatulence / GSRS11 Diarrhea / GSRS14 Urgent need to have a bowel movement / GSRS15 Sensation of not completely emptying the bowels / Ingestion (combined score of GSRS6, GSRS7, GSRS8, and GSRS9) / Reflux (combined score of GSRS2 and GSRS3) / Constipation (combined score of GSRS10, GSRS13, and GSRS14), 'Constipation Syndrome' / GSRS10 Constipation / GSRS13 Hard stools: GLU condition, mean ± SD; for Constipation (combined score of GSRS10, GSRS13, and GSRS14), 'Constipation Syndrome' / GSRS10 Constipation / GSRS13 Hard stools: hydrochloride
# Source text: The remainder of the study consisted of two identical patterns of testing with the exception of what supplementation protocol was followed. FIG. 1 provides a flowchart of the experimental design. Prior to each visit, food and physical activity logs were completed encompassing four days prior to the scheduled laboratory visit. The four days consisted of two weekend days and two weekdays. Each participant reported to the laboratory for a baseline measurement of height, weight, heart rate, and blood pressure. During this visit, participants completed the Bristol Stool Chart and Gastrointestinal Symptom Rating Scale (GSRS) to assess bowel habits and potential gastrointestinal symptoms. Participants were given instructions on how to collect a stool sample and were instructed to do so within 24 hours of each planned study visit. At the completion of this study visit, participants were provided with their first assigned supplement (either PLA [placebo] or GLU [glucosamine]) and instructed to begin supplementation 21 days prior to their second visit. Participants were instructed to collect their second stool sample on the day of their final supplementation dose. On the morning of their second study visit, participants reported to the laboratory after following identical pre-study instructions as previous visits (i.e., fasting, abstention from caffeine and exercise). Study participants again completed assessments for height, weight, heart rate, blood pressure, and questionnaires regarding their bowel habits and gastrointestinal symptoms while also providing their second stool sample and turning in completed food and activity logs. A washout period lasting a minimum of 14 days and a maximum of 21 days separated each phase of the crossover as shown in FIG. 1. […] In a double-blind manner, a glucosamine supplement (GLU) or a maltodextrin placebo (PLA) was distributed in identical opaque capsules to all participants. On a daily basis, participants were instructed to ingest three capsules, each containing 1,000 mg of glucosamine hydrochloride (GlucosaGreen®, TSI Group Ltd. MT, USA) or a placebo (maltodextrin) identical in appearance for a total of 21 days. Each visit at the beginning of the supplementation regimen (Visits 1 and 4, respectively; See FIG. 1) occurred on or before the first day of supplementation while the final day of supplementation occurred the day before each participant's follow-up visit for that study period (Visits 2 and 4, respectively). Participants were instructed to ingest the supplement 15-30 minutes before breakfast with eight fluid ounces of cold water. In the case of a missed dose, participants were instructed to consume the missed dose as soon as possible with a meal. […] The dose of maltodextrin used in the following examples was two to five-fold lower, respectively, than these investigations. Participants completed electronic (Qualtrics, Inc.) versions of the Bristol Stool Chart and the Gastrointestinal Symptoms Rating Scale (GSRS) at four time points throughout the entire study protocol. The first two questionnaires were completed before and after the first supplementation period while the final two questionnaires were collected before and after the second supplementation period. The Bristol Stool Chart requires participants to classify their bowel movements into one of seven different types of stool. Type 1 was classified as being “Separate hard lumps, like nuts (hard to pass)”, Type 2 being “Sausage-shaped, lumpy, uncomfortable to pass”, Type 3 being “Like a sausage, with cracks on its surface”, Type 4 being “Like a sausage or snake, smooth and soft”, Type 5 being “Soft blobs with clear-cut edges, passes easily”, Type 6 being “Fluffy pieces with ragged edges, a mushy stool”, and Type 7 being “Watery, no solid pieces, entirely liquid”. The Gastrointestinal Symptoms Rating Scale (GSRS), a 15-item clinical rating scale was completed a total of four times to assess symptoms related to gastrointestinal distress during the past week. […]
# [1] = Post 21 days, 3 x 1,000 mg/day oral
structure (smiles),measurement,setting,value
"Cl.N[C@H]1C(O)O[C@H](CO)[C@@H](O)[C@@H]1O (stereo partly shown) [GLU, glucosamine hydrochloride]","Abdom Pain (combined score of GSRS 1, GSRS4, and GSRS5)",[1],4.18 ± 1.66
same,Diarrhea (combined score of GSRS11 and GSRS14),[1],3.27 ± 1.56
same,GSRS1 Pain and discomfort in upper abdomen or stomach,[1],1.5 ± 0.7
same,GSRS2 Heartburn,[1],1.2 ± 0.4
same,GSRS3 Acid reflux,[1],1.2 ± 0.4
same,GSRS4 Hunger pangs,[1],1.18 ± 0.4
same,GSRS5 Nausea,[1],1.55 ± 1.21
same,GSRS6 Stomach rumbling,[1],2.2 ± 1.3
same,GSRS7 Stomach bloating,[1],2.1 ± 1.22
same,GSRS8 Burping,[1],1.2 ± 0.4
same,GSRS9 Passing gas or flatulence,[1],2.46 ± 1.21
same,GSRS11 Diarrhea,[1],1.73 ± 1.56
same,GSRS14 Urgent need to have a bowel movement,[1],1.55 ± 0.93
same,GSRS15 Sensation of not completely emptying the bowels,[1],1.09 ± 0.3
same,"Ingestion (combined score of GSRS6, GSRS7, GSRS8, and GSRS9)",[1],7.91 ± 2.98
same,Reflux (combined score of GSRS2 and GSRS3),[1],2.36 ± 0.67
same,"Constipation (combined score of GSRS10, GSRS13, and GSRS14), 'Constipation Syndrome'",[1],3.27±0.9
same,GSRS10 Constipation,[1],1.09±0.3
same,GSRS13 Hard stools,[1],1.09±0.3
same,"Abdom Pain (combined score of GSRS 1, GSRS4, and GSRS5)",Pre (baseline),4.27 ± 1.68
same,Diarrhea (combined score of GSRS11 and GSRS14),Pre (baseline),2.27 ± 0.9
same,GSRS1 Pain and discomfort in upper abdomen or stomach,Pre (baseline),1.2 ± 0.4
same,GSRS2 Heartburn,Pre (baseline),1.1 ± 0.3
same,GSRS3 Acid reflux,Pre (baseline),1.0 ± 0.0
same,GSRS4 Hunger pangs,Pre (baseline),1.82 ± 0.98
same,GSRS5 Nausea,Pre (baseline),1.27 ± 0.9
same,GSRS6 Stomach rumbling,Pre (baseline),1.5 ± 0.69
same,GSRS7 Stomach bloating,Pre (baseline),1.9 ± 1.22
same,GSRS8 Burping,Pre (baseline),1.2 ± 0.4
same,GSRS9 Passing gas or flatulence,Pre (baseline),1.82 ± 0.75
same,GSRS11 Diarrhea,Pre (baseline),1.0 ± 0.0
same,GSRS14 Urgent need to have a bowel movement,Pre (baseline),1.27 ± 0.9
same,GSRS15 Sensation of not completely emptying the bowels,Pre (baseline),1.73 ± 1.1
same,"Ingestion (combined score of GSRS6, GSRS7, GSRS8, and GSRS9)",Pre (baseline),6.45 ± 2.5
same,Reflux (combined score of GSRS2 and GSRS3),Pre (baseline),2.09 ± 0.3
same,"Constipation (combined score of GSRS10, GSRS13, and GSRS14), 'Constipation Syndrome'",Pre (baseline),5.09±3.45
same,GSRS10 Constipation,Pre (baseline),1.82±1.4
same,GSRS13 Hard stools,Pre (baseline),1.55±1.04
same,"Abdom Pain combined score, %","PLA vs. GLU, between-group",4.2%
same,"Constipation combined score, %","PLA vs. GLU, between-group",−33.3%
same,"Diarrhea combined score, %","PLA vs. GLU, between-group",30.6%
same,"GSRS1, %","PLA vs. GLU, between-group",31.3%
same,"GSRS2, %","PLA vs. GLU, between-group",−0.9%
same,"GSRS3, %","PLA vs. GLU, between-group",20.0%
same,"GSRS4, %","PLA vs. GLU, between-group",−11.3%
same,"GSRS5, %","PLA vs. GLU, between-group",35.4%
same,"GSRS6, %","PLA vs. GLU, between-group",37.6%
same,"GSRS7, %","PLA vs. GLU, between-group",−30.7%
same,"GSRS8, %","PLA vs. GLU, between-group",−10%
same,"GSRS9, %","PLA vs. GLU, between-group",8.8%
same,"GSRS10, %","PLA vs. GLU, between-group",−64.9%
same,"GSRS11, %","PLA vs. GLU, between-group",55.0%
same,"GSRS13, %","PLA vs. GLU, between-group",−15.5%
same,"GSRS14, %","PLA vs. GLU, between-group",13.0%
same,"GSRS15, %","PLA vs. GLU, between-group",−23.8%
same,"Ingestion combined score, %","PLA vs. GLU, between-group",−0.4%
same,"Reflux combined score, %","PLA vs. GLU, between-group",8.4%
same,"Stomach bloating ratings (GSRS7), change from baseline","Post vs Pre, p=0.32",no changes were observed

# From patent publication US20220395522A1, “Methods of Use of Glucosamine for Increasing Nitrogen Retention” (TSI Bioproducts (Xuzhou) Co., Ltd., priority 2021, published 2022)
